Results from patent US12146004B2, “Polymyxin compounds and uses thereof” (priority 2014, dated 2024).
In brackets after ≈: the same amount, converted by molar mass. Bridge positions count the residues as written; N and C are the ends. Square brackets hold non-standard residues; d marks the D form. Peptide text beside a SMILES is read from it. * marks the point of attachment. ξ: configuration not given here. dBip = N[C@H](Cc1ccc(-c2ccccc2)cc1)C(=O)O; Thr(3ξ) = CC(O)[C@H](N)C(=O)O; X1 = CC(C)CN1CCNC[C@H]1C(=O)*; Dab = NCC[C@H](N)C(=O)O; Dap = NC[C@H](N)C(=O)O

How the values were obtained:
Format in all cases: cell-based
[1] = system: Escherichia coli, Pseudomonas aeruginosa, Klebsiella pneumoniae and Acinetobacter baumannii; experiment: Susceptibility testing, comparisons in words across the Gram negative pathogens; conditions: versus comparator compound
Experimental: To evaluate the potency and spectrum of the compounds, susceptibility testing was performed against up to nine strains of each of the Gram negative pathogens, Escherichia coli, Pseudomonas aeruginosa, Klebsiella pneumoniae and Acinetobacter baumannii.

[2] = system: HK-2 cells
From the text: Values are reported relative to Polymyxin B.

[3] = system: Escherichia coli
Procedure, shortened: (§1)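 MIC (μg/mL) by susceptibility testing against up to nine strains per species, including strains with elevated Polymyxin MICs and resistant isolates.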

[4] = system: Acinetobacter baumannii
Procedure, shortened: as §1

[5] = system: Pseudomonas aeruginosa
Procedure, shortened: as §1

[6] = system: Klebsiella pneumoniae
Procedure, shortened: as §1

HK-2 IC50 [2]	MIC E. coli 058 [3]	MIC E. coli 059 [3]	MIC E. coli 060 [3]	MIC E. coli 061 [3]	MIC E. coli ATCC 25922 [3]	MIC A. baumanii 053 [4]	MIC A. baumanii 056 [4]	MIC A. baumanii ATCC BAA-747 [4]	MIC P. aeruginosa 068 [5]	MIC P. aeruginosa 070 [5]	MIC P. aeruginosa ATCC 27853 [5]	MIC K. pneumoniae 063 [6]	MIC K. pneumoniae 064 [6]	MIC K. pneumoniae 065 [6]	MIC K. pneumoniae 066 [6]	MIC K. pneumoniae 067 [6]	MIC K. pneumoniae ATCC 4352 [6]	Structure (SMILES)	activity against polymyxin resistant strains [1]
32 µg/mL	0.5 µg/mL (≈ 0.419 µM)	0.5 µg/mL (≈ 0.419 µM)	0.5 µg/mL (≈ 0.419 µM)	2 µg/mL (≈ 1.68 µM)	0.5 µg/mL (≈ 0.419 µM)	2 µg/mL (≈ 1.68 µM)	0.5 µg/mL (≈ 0.419 µM)	0.5 µg/mL (≈ 0.419 µM)	1 µg/mL (≈ 0.839 µM)	2 µg/mL (≈ 1.68 µM)	1 µg/mL (≈ 0.839 µM)	4 µg/mL (≈ 3.35 µM)	2 µg/mL (≈ 1.68 µM)	1 µg/mL (≈ 0.839 µM)	1 µg/mL (≈ 0.839 µM)	8 µg/mL (≈ 6.71 µM)	0.5 µg/mL (≈ 0.419 µM)	CC(C)CC1CNCC(C(=O)N[C@H](C(=O)N[C@@H](CN)C(=O)N[C@H]2CCNC(=O)[C@H]([C@@H](C)O)NC(=O)[C@H](CCN)NC(=O)[C@H](CCN)NC(=O)[C@H](CC(C)C)NC(=O)[C@@H](Cc3ccc(-c4ccccc4)cc3)NC(=O)[C@H](CCN)NC2=O)C(C)O)C1 (single isomer, unassigned; isomer 2) [Example 4, (trans-5-(isobutyl-piperidine)-3-carbonyl L-Thr-L-Dap-polymyxin [D-(4-phenyl)Phe]-6]heptapeptide. Isomer 2]	significantly improves of activity against resistant strains
36 µg/mL	1 µg/mL (≈ 0.838 µM)	1 µg/mL (≈ 0.838 µM)	2 µg/mL (≈ 1.68 µM)	8 µg/mL (≈ 6.7 µM)	0.06 µg/mL (≈ 0.0503 µM)	32 µg/mL (≈ 26.8 µM)	4 µg/mL (≈ 3.35 µM)	0.125 µg/mL (≈ 0.105 µM)	4 µg/mL (≈ 3.35 µM)	8 µg/mL (≈ 6.7 µM)	0.5 µg/mL (≈ 0.419 µM)	16 µg/mL (≈ 13.4 µM)	4 µg/mL (≈ 3.35 µM)	0.5 µg/mL (≈ 0.419 µM)	8 µg/mL (≈ 6.7 µM)	32 µg/mL (≈ 26.8 µM)	0.25 µg/mL (≈ 0.209 µM)	CC(C)C[C@@H]1NC(=O)[C@@H](Cc2ccc(-c3ccccc3)cc2)NC(=O)[C@H](CCN)NC(=O)[C@@H](NC(=O)[C@H](CN)NC(=O)[C@@H](NC(=O)[C@@H]2CNCCN2CC(C)C)C(C)O)CCNC(=O)[C@H]([C@@H](C)O)NC(=O)[C@H](CCN)NC(=O)[C@H](CCN)NC1=O (some centres unmarked) [Example 5] (X1-[Thr(3ξ)][Dap][Dab][Dab][dBip]L[Dab][Dab]T; lactam 3-C)	significantly improves of activity against resistant strains
